Assay results reported in patent publication US11052087B2, “Anti-HIV compounds” (priority 2018, dated 2021).
Values after ≈ are worked out from the molar mass of the structure shown. Like-named read-outs stand apart in the source and are kept apart here.

Tests used:
[1] = Rat PK; type: in vivo; conditions: compound 14 oral solution, 75 mg-eq/kg dose group, male SD rats, LC/MS/MS
Experimental: Compound 14 was formulated in a solution formulation (84% 10 mM HCl; 15% 2-Hydroxypropyl-β-Cyclodextrin; 1% Dimethyl sulfoxide pH 2.0) and administered orally at 2.5 and 75 mg-eq/kg to a dosing groups consisting of three male SD rats. At dosing, the animals weighed between 270 and 350 g. […] Trace amounts of compound 14 were detected in plasma in the 75 mg-eq/kg dose group.

[2] = system: HIV-1 (IIIB) in MT-4 cells; assay: MT-4 HIV Assay; type: cell-based; conditions: Human immunodeficiency virus 1, IIIB, MT4, 120 h
Experimental: Compounds were tested in a high-throughput 384-well assay format for their ability to inhibit the replication of HIV-1 (IIIB) in MT-4 cells. Compounds were serially diluted (1:3) in DMSO on 384-well polypropylene plates and further diluted 200-fold into complete RPMI media (10% FBS, 1% P/S) using the Biotek Micro Flow and Agilent ECHO acoustic dispenser. Each plate contained up to 8 test compounds, with negative (No Drug Control) and 5 μM AZT positive controls. MT-4 cells were pre-infected with 10 μL of either RPMI (mock-infected) or a fresh 1:250 dilution of an HIV-1 (IIIB) concentrated virus stock. Infected and uninfected MT-4 cells were further diluted in complete RPMI media and added to each plate using a Micro Flow dispenser. After 5 days incubation in a humidified and temperature controlled incubator (37° C.), Cell Titer Glo (Promega) was added to the assay plates to quantify the amount of luciferase. EC50 values were defined as the compound concentration that causes a 50% decrease in luminescence signal, and were calculated using a sigmoidal dose-response model to generate curve fits.

[3] = male, beagle, dog, in vivo
Experimental: Pharmacokinetic Profiling Dog PK
(§1) Compound 11 was formulated in a suspension formulation (1% HPMC and 0.05% Tween 20 in DI Water) and administered orally at 10 mg-eq/kg to a dosing group consisting of three non-naïve male beagle dogs. At dosing, the animals weighed between 9 to 12 kg. The animals were fasted overnight prior to dose administration and up to four hours after dosing. Serial venous blood samples (approximately 1.0 mL each) were obtained at pre-dose, 0.25, 0.50, 1, 2, 4, 6, 8, 12, and 24 hours post-dose. The blood samples were collected into Vacutainer™ tubes containing EDTA-K2 as the anti-coagulant and were immediately placed on wet ice pending centrifugation for plasma. An LC/MS/MS method was used to measure the concentration of compound 11 and compound D in plasma. […] In a second experiment, compound D was dosed orally as a suspension using the same formulation and dose level.

[4] = in vivo; conditions: beagle, dog, po
Experimental: Pharmacokinetic Profiling Dog PK
as §1

[5] = Kinetic Solubility Analysis (CLND); type: physicochemical; conditions: 26 °C, kinetic from dmso stock
Experimental: Kinetic Solubility Analysis (CLND) Buffer Preparation:
0.1N HCl: Hydrochloric acid, 0.1N standardized solution.
1×PBS, 7.4: Phosphate Buffered Saline solution 10×, PBS 50 mL was added to approximately 450 mL HPLC grade H2O. The volume of the solution was then adjusted to 500 mL for a total dilution factor of 1:10 and a final PBS concentration of IX.
Kinetic Solubility from DMSO Stocks:
The final DMSO concentration is 1.0% and maximum theoretical compound concentration is 100 μM (assuming stock concentration of 10 mM). The filter plate was sealed. […] The collection plate was sealed for analysis. Filtrates were injected into the nitrogen detector for quantification.
The equimolar nitrogen response of the detector was calibrated using standards which spanned the dynamic range of the instrument from […] nitrogen. The filtrates were quantified with respect to this calibration curve. The calculated solubility values were corrected for background nitrogen present in the DMSO and the media used to prepare the samples.

COC(=O)N[C@H](C(=O)N[C@@H](Cc1ccc(C#Cc2cnc(N3CC4CCC(C3)N4C3COC3)nc2)cc1)[C@H](CN(Cc1c(F)cc(-c2ccn(C(F)F)n2)cc1F)NC(=O)[C@@H](NC(=O)OC)C(C)(C)C(F)(F)F)OC(=O)CN(C)C(=O)[C@@H](N)Cc1ccccc1)C(C)(C)C(F)(F)F [Example 14, (2S,3S)-1-(1-(4-(1-(difluoromethyl)-1H-pyrazol-3-yl)-2,6-difluorobenzyl)-2-((S)-4,4,4-trifluoro-2-((methoxycarbonyl)amino)-3,3-dimethylbutanoyl)hydrazinyl)-4-(4-((2-(8-(oxetan-3-yl)-3,8-diazabicyclo[3.2.1]octan-3-yl)pyrimidin-5-yl)ethynyl)phenyl)-3-((S)-4,4,4-trifluoro-2-((methoxycarbonyl)amino)-3,3-dimethylbutanamido)butan-2-yl N-(L-phenylalanyl)-N-methylglycinate]
concentration of compound 14 in plasma [1]: Trace amounts
EC50 [2]: 6.54 nM

COC(=O)N[C@H](C(=O)N[C@@H](Cc1ccc(C#Cc2cnc(N3CC4CCC(C3)N4C3COC3)nc2)cc1)[C@H](CN(Cc1c(F)cc(-c2ccn(C(F)F)n2)cc1F)NC(=O)[C@@H](NC(=O)OC)C(C)(C)C(F)(F)F)OC(=O)OCOP(=O)(O)O)C(C)(C)C(F)(F)F [Example 11, methyl ((5S,10S,11S,14S)-8-(4-(1-(difluoromethyl)-1H-pyrazol-3-yl)-2,6-difluorobenzyl)-16,16,16-trifluoro-15,15-dimethyl-11-(4-((2-(8-(oxetan-3-yl)-3,8-diazabicyclo[3.2.1]octan-3-yl)pyrimidin-5-yl)ethynyl)benzyl)-3,6,13-trioxo-10-((((phosphonooxy)methoxy)carbonyl)oxy)-5-(1,1,1-trifluoro-2-methylpropan-2-yl)-2-oxa-4,7,8,12-tetraazahexadecan-14-yl)carbamate]
bioavailability of compound D [3]: 5.5±2.6%

COC(=O)N[C@H](C(=O)N[C@@H](Cc1ccc(C#Cc2cnc(N3CC4CCC(C3)N4C3COC3)nc2)cc1)[C@@H](O)CN(Cc1c(F)cc(-c2ccn(C(F)F)n2)cc1F)NC(=O)[C@@H](NC(=O)OC)C(C)(C)C(F)(F)F)C(C)(C)C(F)(F)F [Compound D, methyl ((5S,8S,9S,14S)-11-(4-(1-(difluoromethyl)-1H-pyrazol-3-yl)-2,6-difluorobenzyl)-16,16,16-trifluoro-9-hydroxy-15,15-dimethyl-8-(4-((2-(8-(oxetan-3-yl)-3,8-diazabicyclo[3.2.1]octan-3-yl)pyrimidin-5-yl)ethynyl)benzyl)-3,6,13-trioxo-5-(1,1,1-trifluoro-2-methylpropan-2-yl)-2-oxa-4,7,11,12-tetraazahexadecan-14-yl)carbamate, reference compound]
bioavailability [4]: 2.6 ± 1.1%
solubility at 24 h ([5]; 0.1N HCl, pH 1, simulated gastric fluid, read-out: Solubility, HCl, pH 1.0, RT): 19.5 µM (≈ 22.5 µg/mL)
solubility at 24 h ([5]; PBS, pH 7.4, aqueous buffer, read-out: Solubility, PBS, pH 7.4, RT): < 1 µM
